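Method: 48-hour compound exposure of cells in 96-well plates, five concentrations, linear interpolation of endpoints. The concentration for 50% growth inhibition is given as GI50.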 The source made the active and inactive calls. No stated cut-off is given here; in the data, active = GI50 up to about 1.1 µM and inactive = higher. Where only a bound is given, the exact number is not on record here.

Assay in all cases: inhibition of tumour cell growth, NCI panel, 48 h
The subject of experiment [1] is NCI-H226.
The subject of experiment [2] is RXF 393.
Experiment [3] has as its system SF-295.
Experiment [4] relates to KM12.
The test system of experiment [5] is SNB-19.
Experiment [6] concerns NCI-H23.
Experiment [7] deals with SW-620.
Experiment [8] concerns EKVX.
Experiment [9] relates to UO-31.
The subject of experiment [10] is HCC 2998.
Experiment [11] relates to CAKI-1.
In experiment [12] the test system is SN12C.
The test system of experiment [13] is SK-MEL-5.
In experiment [14] the test system is CCRF-CEM.
Experiment [15] relates to T47D.
Experiment [16] concerns OVCAR-5.
In experiment [17] the test system is IGROV-1.
In experiment [18] the test system is NCI-H522.
Experiment [19] relates to SR.
Experiment [20] concerns SF-539.

With `BrC(Br)=C1C(=C(Br)Br)C(Br)C1Br` (stereo not given), the GI50 in experiment [1] was 0.275 µM (active); in experiment [2], 0.226 µM (active); in [3] it was 0.778 µM (active); in [4], 0.61 µM (active); in [5] it was 1.95 µM (inactive); in experiment [6] it was 0.284 µM (active). Besides, the GI50 in [7] was 0.207 µM (active); in experiment [8] it was 2.08 µM (inactive); in experiment [9] it was 0.701 µM (active); in experiment [10] it was 0.142 µM (active); in [11], 0.132 µM (active); in experiment [12], 0.716 µM (active). The GI50 is 0.826 µM (active) in experiment [13]; 0.0989 µM (active) in experiment [14]; 1.76 µM (inactive) in [15]; 1.69 µM (inactive) in experiment [16]; 0.628 µM (active) in experiment [17]; 0.139 µM (active) in experiment [18]. Also, the GI50 in [19] is 0.043 µM (active); in experiment [20], 0.811 µM (active).

Turning to `CCc1cc(Cc2cc(CC)c(NC(=O)C(=O)CC(=O)c3sc(-c4cccnc4)nc3C)c(CC)c2)cc(CC)c1NC(=O)C(=O)CC(=O)c1sc(-c2cccnc2)nc1C`, the GI50 in experiment [1] was > 100 µM (inactive); in experiment [2] it was > 100 µM (inactive); in experiment [3], 54.3 µM (inactive); in experiment [4], > 100 µM (inactive); in experiment [5], > 100 µM (inactive); in experiment [6], > 100 µM (inactive). The GI50 in experiment [7] is > 100 µM (inactive); in experiment [8], > 100 µM (inactive); in experiment [9] it was > 100 µM (inactive); in experiment [10], > 100 µM (inactive); in experiment [11], > 10 µM (inactive); in experiment [12] it was > 100 µM (inactive). Besides, the GI50 in experiment [13], in [14], in experiment [15], in experiment [16], in [17] and in experiment [18] was > 100 µM (inactive) each time. Besides, the GI50 was > 10 µM (inactive) in [19] and > 100 µM (inactive) in [20].

Consider `N#CC1CCCC2SC(F)(F)C(F)(F)C12` (stereo not given), for which the GI50 in [1], in [2], in experiment [3], in [4], in experiment [5] and in [6] was > 100 µM (inactive) in each case. The GI50 in [7], in experiment [8], in experiment [9], in experiment [10], in experiment [11] and in experiment [12] was > 100 µM (inactive) throughout. The GI50 was > 100 µM (inactive) in experiment [13]; 26.4 µM (inactive) in experiment [14]; > 100 µM (inactive) in experiment [15]; > 100 µM (inactive) in experiment [16]; > 100 µM (inactive) in experiment [17]; > 87.5 µM (inactive) in experiment [18]. Moreover, the figures for the GI50 in [19] and in experiment [20] were 23.8 µM (inactive) and > 100 µM (inactive), respectively.

As to `CC(C)[C@H]1NC(=O)[C@H]2N=C(S[C@H]2C)[C@@H]2CCCN2C(=O)[C@H](Cc2ccccc2)NC(=O)[C@@H]2CSC(=N2)[C@@H](Cc2ccccc2)NC(=O)[C@@H]2CSC1=N2`, the GI50 is 21 µM (inactive) in experiment [1]; 15.9 µM (inactive) in experiment [2]; 30.3 µM (inactive) in experiment [3]; 12.3 µM (inactive) in experiment [4]; 24.2 µM (inactive) in experiment [5]; 40.3 µM (inactive) in experiment [6]. Moreover, the GI50 was 18.1 µM (inactive) in [7]; 27.5 µM (inactive) in experiment [8]; 21.8 µM (inactive) in experiment [9]; 10.7 µM (inactive) in [10]; > 50 µM (inactive) in [11]; 40.2 µM (inactive) in experiment [12]. The GI50 was 24.4 µM (inactive) in experiment [13]; 12.3 µM (inactive) in experiment [14]; 35 µM (inactive) in [15]; > 50 µM (inactive) in experiment [16]; 29 µM (inactive) in experiment [17]; 12.2 µM (inactive) in experiment [18]. Also, the GI50 in experiment [19] was 5.65 µM (inactive); in experiment [20], 22.3 µM (inactive).

On to `CC1(C)CC[C@]2(C(=O)O)CC[C@]3(C)[C@H](C(=O)C=C4[C@@]5(C)C=C(C#N)C(=O)C(C)(C)[C@@H]5CC[C@]43C)[C@@H]2C1` [BARDOXOLONE], for which the GI50 in experiment [1] is 0.416 µM (active); in [2], 0.0995 µM (active); in experiment [3], 0.573 µM (active); in experiment [4] it was 0.279 µM (active); in experiment [5] it was 0.303 µM (active); in experiment [6], 0.174 µM (active). The GI50 in experiment [7] is 0.492 µM (active); in experiment [8], 1.34 µM (inactive); in experiment [9] it was 1.06 µM (active); in experiment [10], < 0.0412 µM (active); in experiment [11], 0.687 µM (active); in [12], 0.493 µM (active). Further, the GI50 in experiment [13] is 0.258 µM (active); in experiment [14], 0.22 µM (active); in experiment [15], 0.414 µM (active); in experiment [16] it was 0.488 µM (active); in [17] it was 0.762 µM (active); in experiment [18], 0.923 µM (active). Moreover, the GI50 in experiment [19] is 0.0561 µM (active); in experiment [20], 0.569 µM (active).

On to `CC(Oc1ccccc1Cl)C(=O)NN1C(=O)CSC1c1ccccc1` (stereo not given), for which the GI50 in [1] is > 100 µM (inactive); in [2], 61.2 µM (inactive); in [3] it was 68.7 µM (inactive); in experiment [4] it was > 100 µM (inactive); in [5] it was > 100 µM (inactive); in [6] it was > 100 µM (inactive). The GI50 in experiment [7] was > 100 µM (inactive); in experiment [8] it was > 100 µM (inactive); in [9], > 100 µM (inactive); in experiment [10], > 100 µM (inactive); in experiment [11] it was > 100 µM (inactive); in experiment [12], 74.6 µM (inactive). Also, the GI50 in [13] was > 100 µM (inactive); in experiment [14], > 100 µM (inactive); in experiment [15] it was 63.4 µM (inactive); in experiment [16] it was > 100 µM (inactive); in experiment [17], > 100 µM (inactive); in [18] it was 64.6 µM (inactive). The figures for the GI50 in experiment [19] and in [20] were 21.9 µM (inactive) and > 100 µM (inactive), respectively.

For the compound `Cc1ccc(-c2nc(N/N=C/c3ccc(O)cc3)c3ccccc3n2)cc1`, the GI50 was 21.5 µM (inactive) in experiment [1]; 21 µM (inactive) in experiment [2]; 17.9 µM (inactive) in experiment [3]; 13.5 µM (inactive) in experiment [4]; 26.6 µM (inactive) in experiment [5]; 7.31 µM (inactive) in experiment [6]. The GI50 in [7] was 19 µM (inactive); in experiment [8], 3.98 µM (inactive); in experiment [9], 5.47 µM (inactive); in [10] it was 14.1 µM (inactive); in experiment [11] it was 10.8 µM (inactive); in experiment [12], 8.2 µM (inactive). Moreover, the GI50 was 3.51 µM (inactive) in [13]; 15.8 µM (inactive) in [14]; 5.22 µM (inactive) in experiment [15]; 20.3 µM (inactive) in [16]; 8.47 µM (inactive) in experiment [17]; 14.2 µM (inactive) in [18]. Besides, the GI50 in [19] was 39.4 µM (inactive); in experiment [20], 27.3 µM (inactive).

For the origin of these results see ChEMBL document CHEMBL1201862, “PubChem BioAssay data set” (2004).
